Source: patent publication US12239643B2, “Therapeutic agent for inflammatory diseases, autoimmune diseases, fibrotic diseases, and cancer diseases” (MEIJI SEIKA PHARMA CO., LTD., priority 2018, dated 2025)
pIC50: −log10 of the molar value. Read-outs that look alike come from different tables or passages of the source.

Test system: PDE4
Assay: Evaluation of PDE4 inhibitory activity, scintillation proximity assay
Format: biochemical
Conditions: scintillation proximity assay
Method in brief: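 SPA with [2,8-3H]-cAMP and diluted PDE4 enzyme preparation in 50 mM Tris-HCl pH 7.4, 8.3 mM MgCl2, 1.7 mM EGTA, 3 mg/mL BSA, 120 min at room temperature. Product captured on ZnSO4-containing YSi-SPA beads, scintillation counted; IC50 from inhibition curves vs DMSO control and no-enzyme blank.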

[1] = read-out: PDE4 Inhibitory Activity (Evaluation 1; concentration for the inhibition rate of 50%)
[2] = class symbols of Evaluation 1, read-out: PDE4 Inhibitory Activity (concentration for the inhibition rate of 50%, IC50), Evaluation 1

How did the pIC50 [1] turn out when `COC(c1ccc(-c2nccs2)c2oc(N3CC4CCC(C3)N4)nc12)C(F)(F)F` (centres unmarked) [Example 222, 2-(3,8-Diazabicyclo[3.2.1]octan-3-yl)-7-(thiazol-2-yl)-4-(2,2,2-trifluoro-1-methoxyethyl)benzo[d]oxazole] was run?
The pIC50 was greater than 7.00.

How did the pIC50 [2] turn out when `FC(F)(F)c1c(Cl)cc(-n2cccn2)c2oc(N3CC4CCCC(C3)N4)nc12` [Example 16, 2-(3,9-Diazabicyclo[3.3.1]nonan-3-yl)-5-chloro-7-(1H-pyrazol-1-yl)-4-(trifluoromethyl)benzo[d]oxazole] was run?
The pIC50 was greater than 7.00.

`CC(C)(O)c1cc(-c2nccs2)c2oc(N3CC4CCCC(C3)N4)nc2c1C(F)(F)F` [Example 166, 2-(2-(3,9-Diazabicyclo[3.3.1]nonan-3-yl)-7-(thiazol-2-yl)-4-(trifluoromethyl)benzo[d]oxazol-5-yl)propan-2-ol] was tested. Which pIC50 [2] did it give?
Its pIC50 is greater than 7.00.

With `FC(F)(F)c1c(Cl)cc(-c2ccccn2)c2oc(N3CC4CCC(C3)N4)nc12` [Example 11, 2-(3,8-Diazabicyclo[3.2.1]octan-3-yl)-5-chloro-7-(pyridin-2-yl)-4-(trifluoromethyl)benzo[d]oxazole] as the molecule, how does the pIC50 [2] read?
The pIC50 was greater than 7.00.

`C[C@H](O)COc1ccc(-c2nccs2)c2oc(N3CC4CC(C3)N4)nc12` [Example 260, (2S)-1-((2-(3,6-diazabicyclo[3.1.1]heptan-3-yl)-7-(thiazol-2-yl)benzo[d]oxazol-4-yl)oxy)propan-2-ol] was tested. Which pIC50 [1] did it give?
Its pIC50 is greater than 7.00.

With `N#CCOc1cc(-c2nccs2)c2oc(N3CC4CCC(C3)N4)nc2c1` [Example 73, 2-((2-(3,8-Diazabicyclo[3.2.1]octan-3-yl)-7-(thiazol-2-yl)benzo[d]oxazol-5-yl)oxy)acetonitrile] as the molecule, how does the pIC50 [2] read?
Its pIC50 is greater than 7.00.

`CCC(F)(F)Oc1ccc(-c2nccs2)c2oc(N3CC4CC(C3)N4)nc12` [Example 402, 2-(3,6-Diazabicyclo[3.1.1]heptan-3-yl)-4-(1,1-difluoropropoxy)-7-(thiazol-2-yl)benzo[d]oxazole] was tested. Which pIC50 [1] did it give?
The pIC50 was greater than 7.00.

How did the pIC50 [1] turn out when `CC(O)c1cc(-c2nccs2)c2oc(N3CC4CC(C3)N4)nc2c1C(F)(F)F` (centres unmarked) [Example 182, 1-(2-(3,6-Diazabicyclo[3.1.1]heptan-3-yl)-7-(thiazol-2-yl)-4-(trifluoromethyl)benzo[d]oxazol-5-yl)ethan-1-ol] was run?
Its pIC50 is greater than 7.00.

How did the pIC50 [1] turn out when `OC(O)(c1ccc(-c2nccs2)c2oc(N3CC4CCC(C3)N4)nc12)C(F)(F)F` [Example 233, 1-(2-(3,8-Diazabicyclo[3.2.1]octan-3-yl)-7-(thiazol-2-yl)benzo[d]oxazol-4-yl)-2,2,2-trifluoroethane-1,1-diol] was run?
The pIC50 was greater than 7.00.

With `CC(C)(O)C(F)(F)Oc1ccc(-c2ncco2)c2oc(N3CC4CC(C3)N4)nc12` [Example 290, 1-((2-(3,6-Diazabicyclo[3.1.1]heptan-3-yl)-7-(oxazol-2-yl)benzo[d]oxazol-4-yl)oxy)-1,1-difluoro-2-methylpropan-2-ol] as the molecule, how does the pIC50 [1] read?
The pIC50 was greater than 7.00.

How did the pIC50 [2] turn out when `OC(c1cc(-c2nccs2)c2oc(N3CC4CCC(C3)N4)nc2c1)C(F)(F)F` (centres unmarked) [Example 138, 1-(2-(3,8-Diazabicyclo[3.2.1]octan-3-yl)-7-(thiazol-2-yl)benzo[d]oxazol-5-yl)-2,2,2-trifluoroethan-1-ol] was run?
Its pIC50 is greater than 7.00.

With `CC(=O)Nc1ccc(-c2nccs2)c2oc(N3CC4CCCC(C3)N4)nc12` [Example 34, N-(2-(3,9-Diazabicyclo[3.3.1]nonan-3-yl)-7-(thiazol-2-yl)benzo[d]oxazol-4-yl)acetamide] as the molecule, how does the pIC50 [2] read?
Its pIC50 is greater than 7.00.

`O=C(O)c1ccc(-c2nccs2)c2oc(N3CC4CC(C3)N4)nc12` [Example 366, 2-(3,6-Diazabicyclo[3.1.1]heptan-3-yl)-7-(thiazol-2-yl)benzo[d]oxazole-4-carboxylic acid] was tested. Which pIC50 [1] did it give?
Its pIC50 is 6.00 to 7.00.

With `CCC(O)c1cc(-c2nccs2)c2oc(N3CC4CCC(C3)N4)nc2c1OC(F)(F)F` (centres unmarked) [Example 204, 1-(2-(3,8-Diazabicyclo[3.2.1]octan-3-yl)-7-(thiazol-2-yl)-4-(trifluoromethoxy)benzo[d]oxazol-5-yl)propan-1-ol] as the molecule, how does the pIC50 [1] read?
The pIC50 was greater than 7.00.

`OCC(F)(F)Oc1ccc(-c2cscn2)c2oc(N3CC4CCC(C3)N4)nc12` [Example 312, 2-((2-(3,8-Diazabicyclo[3.2.1]octan-3-yl)-7-(thiazol-4-yl)benzo[d]oxazol-4-yl)oxy)-2,2-difluoroethan-1-ol] was tested. Which pIC50 [1] did it give?
The pIC50 was greater than 7.00.

`CC(C)(O)CC(F)(F)Oc1ccc(-c2nccs2)c2oc(N3CC4CC(C3)N4)nc12` [Example 295, 4-((2-(3,6-Diazabicyclo[3.1.1]heptan-3-yl)-7-(thiazol-2-yl)benzo[d]oxazol-4-yl)oxy)-4,4-difluoro-2-methylbutan-2-ol] was tested. Which pIC50 [1] did it give?
Its pIC50 is greater than 7.00.

How did the pIC50 [2] turn out when `COC(C)(c1cc(-c2nccs2)c2oc(N3CC4CC(C3)N4)nc2c1)C(F)(F)F` (centres unmarked) [Example 103, 2-(3,6-Diazabicyclo[3.1.1]heptan-3-yl)-7-(thiazol-2-yl)-5-(1,1,1-trifluoro-2-methoxypropan-2-yl)benzo[d]oxazole] was run?
Its pIC50 is greater than 7.00.

With `COC(C)(c1cc(-c2nccs2)c2oc(N3CC4CCC(C3)N4)nc2c1)C(F)(F)F` (centres unmarked) [Example 102, 2-(3,8-Diazabicyclo[3.2.1]octan-3-yl)-7-(thiazol-2-yl)-5-(1,1,1-trifluoro-2-methoxypropan-2-yl)benzo[d]oxazole] as the molecule, how does the pIC50 [2] read?
Its pIC50 is greater than 7.00.

`CC(C)c1cc(-c2nccs2)c2oc(N3CC4CCC(C3)N4)nc2c1` [Example 21, 2-(3,8-Diazabicyclo[3.2.1]octan-3-yl)-5-isopropyl-7-(thiazol-2-yl)benzo[d]oxazole] was tested. Which pIC50 [2] did it give?
Its pIC50 is greater than 7.00.

How did the pIC50 [2] turn out when `COC(C)c1cc(-c2nccs2)c2oc(N3CC4CCC(C3)N4)nc2c1` (centres unmarked) [Example 110, 2-(3,8-Diazabicyclo[3.2.1]octan-3-yl)-5-(1-methoxyethyl)-7-(thiazol-2-yl)benzo[d]oxazole] was run?
Its pIC50 is greater than 7.00.

With `FC(F)(F)COC(c1cc(-c2nccs2)c2oc(N3CC4CC(C3)N4)nc2c1)C(F)(F)F` (centres unmarked) [Example 151, 2-(3,6-Diazabicyclo[3.1.1]heptan-3-yl)-7-(thiazol-2-yl)-5-(2,2,2-trifluoro-1-(2,2,2-trifluoroethoxy)ethyl)benzo[d]oxazole] as the molecule, how does the pIC50 [2] read?
The pIC50 was greater than 7.00.

With `FC(F)(F)Oc1cc(-c2nccs2)c2oc(N3CC4CCCC(C3)N4)nc2c1` [Example 55, 2-(3,9-Diazabicyclo[3.3.1]nonan-3-yl)-7-(thiazol-2-yl)-5-(trifluoromethoxy)benzo[d]oxazole] as the molecule, how does the pIC50 [2] read?
Its pIC50 is greater than 7.00.

With `CC(C)(O)COC(c1ccc(-c2nccs2)c2oc(N3CC4CC(C3)N4)nc12)C(F)(F)F` (centres unmarked) [Example 255] as the molecule, how does the pIC50 [1] read?
Its pIC50 is greater than 7.00.

With `COC(C)c1cc(-c2nccs2)c2oc(N3CC4CCC(C3)N4)nc2c1OC(F)(F)F` (centres unmarked) [Example 210, 2-(3,8-Diazabicyclo[3.2.1]octan-3-yl)-5-(1-methoxyethyl)-7-(thiazol-2-yl)-4-(trifluoromethoxy)benzo[d]oxazole] as the molecule, how does the pIC50 [1] read?
Its pIC50 is greater than 7.00.

With `OC1(c2cc(-c3nccs3)c3oc(N4CC5CC(C4)N5)nc3c2OC(F)(F)F)CC1` [Example 269, 1-(2-(3,6-Diazabicyclo[3.1.1]heptan-3-yl)-7-(thiazol-2-yl)-4-(trifluoromethoxy)benzo[d]oxazol-5-yl)cyclopropan-1-ol] as the molecule, how does the pIC50 [1] read?
Its pIC50 is greater than 7.00.

How did the pIC50 [2] turn out when `FC(F)(F)Oc1c(Cl)cc(-c2ncco2)c2oc(N3CC4CCC(C3)N4)nc12` [Example 9, 2-(3,8-Diazabicyclo[3.2.1]octan-3-yl)-5-chloro-7-(oxazol-2-yl)-4-(trifluoromethoxy)benzo[d]oxazole] was run?
Its pIC50 is greater than 7.00.

`FC(F)(F)c1c(Cl)cc(-c2nccs2)c2oc(N3CC4COCC(C3)N4)nc12` [Example 19, 7-(5-Chloro-7-(thiazol-2-yl)-4-(trifluoromethyl)benzo[d]oxazol-2-yl)-3-oxa-7,9-diazabicyclo[3.3.1]nonane] was tested. Which pIC50 [2] did it give?
Its pIC50 is greater than 7.00.

With `O=C(O)COc1cc(-c2nccs2)c2oc(N3CC4CCC(C3)N4)nc2c1` [Example 74, 2-((2-(3,8-Diazabicyclo[3.2.1]octan-3-yl)-7-(thiazol-2-yl)benzo[d]oxazol-5-yl)oxy)acetic acid] as the molecule, how does the pIC50 [2] read?
Its pIC50 is greater than 7.00.

How did the pIC50 [1] turn out when `COC(C)c1cc(-c2nccs2)c2oc(N3CC4CCC(C3)N4)nc2c1C(F)(F)F` (centres unmarked) [Example 184, 2-(3,8-Diazabicyclo[3.2.1]octan-3-yl)-5-(1-methoxyethyl)-7-(thiazol-2-yl)-4-(trifluoromethyl)benzo[d]oxazole] was run?
Its pIC50 is greater than 7.00.

`OC(O)(c1cc(-c2nccs2)c2oc(N3CC4CC(C3)N4)nc2c1)C(F)(F)F` [Example 158, 1-(2-(3,6-Diazabicyclo[3.1.1]heptan-3-yl)-7-(thiazol-2-yl)benzo[d]oxazol-5-yl)-2,2,2-trifluoroethane-1,1-diol] was tested. Which pIC50 [2] did it give?
Its pIC50 is 6.00 to 7.00.

`CC(C)(O)C(C)(C)OC(c1ccc(-c2nccs2)c2oc(N3CC4CC(C3)N4)nc12)C(F)(F)F` (centres unmarked) [Example 280, 3-(1-(2-(3,6-Diazabicyclo[3.1.1]heptan-3-yl)-7-(thiazol-2-yl)benzo[d]oxazol-4-yl)-2,2,2-trifluoroethoxy)-2,3-dimethylbutan-2-ol] was tested. Which pIC50 [1] did it give?
Its pIC50 is greater than 7.00.

`CC(=O)OC(c1cc(-c2nccs2)c2oc(N3CC4CCC(C3)N4)nc2c1)C(F)(F)F` (centres unmarked) [Example 141, 1-(2-(3,8-Diazabicyclo[3.2.1]octan-3-yl)-7-(thiazol-2-yl)benzo[d]oxazol-5-yl)-2,2,2-trifluoroethyl acetate] was tested. Which pIC50 [2] did it give?
Its pIC50 is greater than 7.00.

With `CC(O)c1cc(-c2nccs2)c2oc(N3CC4CCC(C3)N4)nc2c1C(F)(F)F` (centres unmarked) [Example 181, 1-(2-(3,8-Diazabicyclo[3.2.1]octan-3-yl)-7-(thiazol-2-yl)-4-(trifluoromethyl)benzo[d]oxazol-5-yl)ethan-1-ol] as the molecule, how does the pIC50 [1] read?
Its pIC50 is greater than 7.00.

How did the pIC50 [1] turn out when `O=C(c1cc(-c2nccs2)c2oc(N3CC4CCC(C3)N4)nc2c1OC(F)(F)F)N1CC(O)(C(F)(F)F)C1` [Example 194, (2-(3,8-Diazabicyclo[3.2.1]octan-3-yl)-7-(thiazol-2-yl)-4-(trifluoromethoxy)benzo[d]oxazol-5-yl)(3-hydroxy-3-(trifluoromethyl)azetidin-1-yl)methanone] was run?
Its pIC50 is 6.00 to 7.00.

How did the pIC50 [1] turn out when `CCOC(=O)c1cc(-c2nccs2)c2oc(N3CC4CCCC(C3)N4)nc2c1OC(F)(F)F` [Example 188, Ethyl 2-(3,9-diazabicyclo[3.3.1]nonan-3-yl)-7-(thiazol-2-yl)-4-(trifluoromethoxy)benzo[d]oxazole-5-carboxylate] was run?
Its pIC50 is greater than 7.00.
